Test results as given in PubChem BioAssay AID248 (DTP/NCI, 2004).
Values joined by “and” are separate entries in the source; they are usually repeats but may differ in a detail not shown here. Identical values can stand only once. Toxic doses and inconclusive results are not listed. Cut-off read from the data, not from the text of the source: active = T/C of 150% or more; inactive = T/C below 125%.

Tested on: L1210 leukemia ip in BDF1 mice, survival T/C
Assay: NCI In Vivo Anticancer Drug Screen. Data for tumor model L1210 Leukemia (intraperitoneal) in B6D2F1 (BDF1) mice
Conditions: endpoint: mean survival time, higher = longer survival
In short: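 Read-out is survival time, reported as the treated-group measurement over the vehicle-control measurement.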

[1] = dose: 50.0 mg/kg/injection, schedule: Q01DX009 (ip), vehicle: saline with Tween-80
[2] = dose: 100.0 mg/kg/injection, schedule: Q01DX009 (ip), vehicle: saline with Tween-80
[3] = dose: 100.0 mg/kg/injection, schedule: Q04DX003 (ip), vehicle: saline with Tween-80
[4] = dose: 200.0 mg/kg/injection, schedule: Q04DX003 (ip), vehicle: saline with Tween-80
[5] = dose: 400.0 mg/kg/injection, schedule: Q04DX003 (ip), vehicle: saline with Tween-80
[6] = dose: 100.0 mg/kg/injection, schedule: Q01DX009 (ip), vehicle: Klucel (hydroxypropylcellulose) (HPC)
[7] = dose: 100.0 mg/kg/injection, schedule: Q04DX003 (ip), vehicle: Klucel (hydroxypropylcellulose) (HPC)
[8] = dose: 200.0 mg/kg/injection, schedule: Q01DX009 (ip), vehicle: Klucel (hydroxypropylcellulose) (HPC)
[9] = dose: 200.0 mg/kg/injection, schedule: Q04DX003 (ip), vehicle: Klucel (hydroxypropylcellulose) (HPC)
[10] = dose: 400.0 mg/kg/injection, schedule: Q04DX003 (ip), vehicle: Klucel (hydroxypropylcellulose) (HPC)
[11] = dose: 50.0 mg/kg/injection, schedule: Q01DX001 (ip), vehicle: saline
[12] = dose: 100.0 mg/kg/injection, schedule: Q01DX001 (ip), vehicle: saline
[13] = dose: 200.0 mg/kg/injection, schedule: Q01DX001 (ip), vehicle: saline
[14] = dose: 400.0 mg/kg/injection, schedule: Q01DX001 (ip), vehicle: saline

Measured: T/C

CCOC(=O)C1=C(O)c2c(sc(C)c2C)N(S(=O)(=O)c2ccc(C)cc2)CC1
inactive: [1] 93 % of control | dose: 50.0 mg/kg/injection, schedule: Q04DX003 (ip), vehicle: saline with Tween-80 97 % of control | [2] 90 % of control | [3] 101 % of control | dose: 200.0 mg/kg/injection, schedule: Q01DX009 (ip), vehicle: saline with Tween-80 96 % of control | [4] 93 % of control | [5] 98 % of control

C=CCOCC(O)CN(C)c1ccccc1 (centres undefined)
inactive: [6] 101 % of control | [7] 96 % of control | [8] 112 % of control | [9] 95 % of control | dose: 400.0 mg/kg/injection, schedule: Q01DX009 (ip), vehicle: Klucel (hydroxypropylcellulose) (HPC) 91 % of control | [10] 93 % of control

CC(CN(C)C)C(O)(c1ccccc1)c1ccccc1 (centres undefined)
inactive: [11] 98 % of control | [12] 98 % of control | [13] 104 % of control

CCN(CC)CCCCCCn1c2ccccc2c2c(C)c3cnccc3c(C)c21
inactive: dose: 25.0 mg/kg/injection, schedule: Q01DX009 (ip), vehicle: saline with Tween-80 108 % of control | [1] 102 % of control | [2] 105 % of control

COc1cccc(NC(=O)NC(C)(C)C)c1
inactive: [1] 95 % of control and 119 % of control | dose: 100.0 mg/kg/injection, schedule: Q01DX001 (ip), vehicle: saline with Tween-80 106 % of control | dose: 100.0 mg/kg/injection, schedule: Q04DX002 (ip), vehicle: saline with Tween-80 97 % of control and 103 % of control | [3] 105 % of control | dose: 200.0 mg/kg/injection, schedule: Q01DX001 (ip), vehicle: saline with Tween-80 100 % of control | dose: 200.0 mg/kg/injection, schedule: Q04DX002 (ip), vehicle: saline with Tween-80 94 % of control and 100 % of control | [4] 104 % of control | dose: 400.0 mg/kg/injection, schedule: Q01DX001 (ip), vehicle: saline with Tween-80 111 % of control | dose: 400.0 mg/kg/injection, schedule: Q01DX009 (ip), vehicle: saline with Tween-80 103 % of control and 108 % of control | dose: 400.0 mg/kg/injection, schedule: Q04DX002 (ip), vehicle: saline with Tween-80 97 % of control and 86 % of control | [5] 96 % of control

COc1ccccc1/C=N\N=C(N/N=C/c1ccccc1OC)N/N=C/c1ccccc1OC
inactive: dose: 15.0 mg/kg/injection, schedule: Q01DX Z (ip), vehicle: methylcellulose (MC) 96 % of control | dose: 30.0 mg/kg/injection, schedule: Q01DX Z (ip), vehicle: methylcellulose (MC) 108 % of control | dose: 60.0 mg/kg/injection, schedule: Q01DX Z (ip), vehicle: methylcellulose (MC) 101 % of control | dose: 60.0 mg/kg/injection, schedule: Q01DX Z (oral), vehicle: methylcellulose (MC) 102 % of control | dose: 120.0 mg/kg/injection, schedule: Q01DX Z (ip), vehicle: methylcellulose (MC) 102 % of control | dose: 120.0 mg/kg/injection, schedule: Q01DX Z (oral), vehicle: methylcellulose (MC) 100 % of control | dose: 240.0 mg/kg/injection, schedule: Q01DX Z (ip), vehicle: methylcellulose (MC) 97 % of control | dose: 325.0 mg/kg/injection, schedule: Q01DX Z (oral), vehicle: methylcellulose (MC) 86 % of control | dose: 360.0 mg/kg/injection, schedule: Q01DX Z (ip), vehicle: methylcellulose (MC) 100 % of control | dose: 480.0 mg/kg/injection, schedule: Q01DX Z (ip), vehicle: methylcellulose (MC) 110 % of control | dose: 480.0 mg/kg/injection, schedule: Q01DX Z (oral), vehicle: methylcellulose (MC) 104 % of control | dose: 675.0 mg/kg/injection, schedule: Q01DX Z (oral), vehicle: methylcellulose (MC) 108 % of control

COc1ccc2nc3cc(Cl)ccc3c(NCCO)c2c1
inactive: dose: 75.0 mg/kg/injection, schedule: Q01DX001 (ip), vehicle: Klucel (hydroxypropylcellulose) (HPC) 100 % of control | dose: 100.0 mg/kg/injection, schedule: Q01DX001 (ip), vehicle: carboxymethylcellulose (CMC) 100 % of control | dose: 100.0 mg/kg/injection, schedule: Q04DX003 (ip), vehicle: saline 96 % of control | dose: 150.0 mg/kg/injection, schedule: Q01DX001 (ip), vehicle: Klucel (hydroxypropylcellulose) (HPC) 96 % of control | dose: 200.0 mg/kg/injection, schedule: Q01DX001 (ip), vehicle: carboxymethylcellulose (CMC) 100 % of control | dose: 200.0 mg/kg/injection, schedule: Q04DX003 (ip), vehicle: saline 96 % of control | dose: 300.0 mg/kg/injection, schedule: Q01DX001 (ip), vehicle: Klucel (hydroxypropylcellulose) (HPC) 96 % of control | dose: 400.0 mg/kg/injection, schedule: Q01DX001 (ip), vehicle: carboxymethylcellulose (CMC) 108 % of control | dose: 400.0 mg/kg/injection, schedule: Q04DX003 (ip), vehicle: saline 89 % of control

CC(=[N-])CC(C)=O.CC(=[N-])CC(C)=O.[Co+2]
inactive: dose: 12.5 mg/kg/injection, schedule: Q01DX001 (ip), vehicle: saline 86 % of control | dose: 25.0 mg/kg/injection, schedule: Q01DX001 (ip), vehicle: saline 98 % of control

O=[N+]([O-])c1cc(NS(=O)(=O)c2ccccc2)ccc1NS(=O)(=O)c1ccccc1
inactive: dose: 50.0 mg/kg/injection, schedule: Q01DX009 (ip), vehicle: Klucel (hydroxypropylcellulose) (HPC) 90 % of control | [6] 90 % of control | [7] 111 % of control | [8] 93 % of control | [9] 97 % of control | [10] 94 % of control

Cn1nc(-c2ccc([N+](=O)[O-])o2)nc1N
inactive: [11] 98 % of control | [12] 96 % of control | [13] 98 % of control | [14] 104 % of control

CN(C)[C@@H]1C(=O)C(C(=O)NCNc2cccc(C(=O)O)c2C(=O)O)=C(O)[C@@]2(O)C(=O)C3=C(O)c4c(O)cccc4[C@@](C)(O)[C@H]3C[C@@H]12
inactive: dose: 100.0 mg/kg/injection, schedule: Q01DX Z (ip), vehicle: saline 110 % of control | dose: 150.0 mg/kg/injection, schedule: Q01DX Z (ip), vehicle: saline 105 % of control | dose: 225.0 mg/kg/injection, schedule: Q01DX Z (ip), vehicle: saline 104 % of control | dose: 340.0 mg/kg/injection, schedule: Q01DX Z (ip), vehicle: saline 103 % of control

CCC1([N+](=O)[O-])COP(=O)(OC(=O)c2ccc([N+](=O)[O-])cc2)OC1 (centres undefined)
inactive: [12] 91 % of control | [13] 91 % of control | [14] 92 % of control

CCN1C(N)=NC(N)=NC1c1ccccc1 (centres undefined)
inactive: dose: 25.0 mg/kg/injection, schedule: Q01DX001 (ip), vehicle: Klucel (hydroxypropylcellulose) (HPC) 103 % of control | dose: 50.0 mg/kg/injection, schedule: Q01DX001 (ip), vehicle: Klucel (hydroxypropylcellulose) (HPC) 97 % of control | dose: 100.0 mg/kg/injection, schedule: Q01DX001 (ip), vehicle: Klucel (hydroxypropylcellulose) (HPC) 102 % of control and 103 % of control

Cn1c(=O)cc(CCl)c2ccccc21
inactive: dose: 100.0 mg/kg/injection, schedule: Q01DX001 (ip), vehicle: other 105 % of control

Nc1cc2ccccc2c2c1ccc1ccccc12
inactive: dose: 87.5 mg/kg/injection, schedule: Q04DX003 (ip), vehicle: Klucel (hydroxypropylcellulose) (HPC) 91 % of control | [7] 97 % of control | dose: 175.0 mg/kg/injection, schedule: Q04DX003 (ip), vehicle: Klucel (hydroxypropylcellulose) (HPC) 93 % of control | [9] 94 % of control | dose: 350.0 mg/kg/injection, schedule: Q04DX003 (ip), vehicle: Klucel (hydroxypropylcellulose) (HPC) 102 % of control
